Reference: paper PMC12261233, “Photoactivatable Cyclometalated Ir(III) Compound Penetrates the Blood-Brain Barrier in 3D Spheroidal and Advanced 3D Organoid Models of Inherently Resistant and Aggressive Brain Tumors” (ACS Pharmacology & Translational Science, 2025)
Like-named read-outs stand apart in the source and are kept apart here.

Columns and labels:
U87MG spheroids = assay: Antiproliferative activity, 3D spheroids, CellTiter-Glo 3D assay; type: cell-based, human; details: for PI (phototoxicity index) 3D: IC50 dark / IC50 420 nm irradiated; for IC50: U87MG 3D spheroids, 90 min treatment, CellTiter-Glo 3D; for TMI (3D/2D): ratio of IC50 for 3D and 2D models under irradiation
Protocol: The antiproliferative activity of the compounds under investigation was assessed using the Sulforhodamine B (SRB) assay on both 2D cell monolayers and 3D spheroids. For the 2D cell monolayer assay, cells were seeded in 96-well tissue culture plates at a density of 3 × 10^3 cells/well in 100 μL of culture medium. Following overnight incubation in a humidified CO2 incubator, the medium was replaced, and the cells were treated with the investigated compounds in a final volume of 200 μL/well of Earle’s Balanced Salt Solution (EBSS). The cells were then exposed to the tested compounds for 1.5 h under dark conditions (5% CO2, 37 °C) and subsequently irradiated with blue light (420 nm) for 30 min at an intensity of 58 W/m^2. After treatment, the samples were washed with Phosphate-Buffered Saline (PBS) and replenished with 200 μL of culture medium. Following an additional 70-h incubation, the cells were washed with PBS, fixed with trichloroacetic acid at 4 °C for 1 h, and stained with 0.4% SRB dye for 30 min. The stained cells were dissolved with Tris (10 mM), and the cell viability was assessed by measuring the absorbance at 570 nm using an Absorbance Reader (SPARK TECAN, SCHOELLER). The absorbance readings were then converted to the percentage of control (% cell survival), and the antiproliferative effects were expressed as IC50 values, which were calculated from curves plotting cell survival (%) versus drug concentration (μM) (IC50 = the concentration of the agent that inhibits cell growth by 50%). For experiments with 3D spheroids, 2500 single cells/well were seeded on ultralow attachment U-shape 96-well plates (Corning, USA) and cultured for 72 h in 3D forming medium DMEM-F12 ham medium supplemented with growth and spheroid forming factors: 2% B27 (Thermo Fisher Scientific Inc., MA, USA), epidermal growth factor (EGF; Sigma-Aldrich, Germany, 20 ng mL^–1), fibroblast growth factor (FGF2; Sigma-Aldrich, Germany, 10 ng mL^–1), and BSA (0.15%). After the 72-h spheroid formation period, the samples were treated and irradiated as described for the 2D cultures. Subsequently, the samples were cultured in the 3D forming medium for an additional 70 h, and the antiproliferative potency of the tested compounds against spheroids was determined by assessing changes in IC50 values using the CellTiterGlo-3D assay (Promega). The luminescence signal was detected using the plate reader SPARK (Tecan, Manedorf, Switzerland), and the IC50 values were calculated from the survival curves. All experiments were conducted in triplicate to ensure the reliability and reproducibility of the results. Furthermore, the concentrations of the compounds in the medium during the treatment were verified using Flame Atomic Absorption Spectroscopy (FAAS) or Inductively Coupled Plasma Mass Spectrometry (ICP-MS).
The antiproliferative activity (IC50 valuesa) of the investigated compounds determined in 2D and 3D models of U87MG cellsb
Dark Irradiated PId Dark Irradiated PIe (3D/2D) […]
a Concentration that causes 50% inhibition of cell proliferation. b Cell monolayer or generated 3D spheroids were treated for 90 min with increasing concentrations of the investigated compounds, followed by 30 min of irradiation with blue light (420 nm; 58 Wm-2) and 70 h of drug-free incubation. c IC50 values were determined by SRB assay. d IC50 values were determined by CellTiter-Glo® 3D chemiluminescent assay. e PI - phototoxicity index was calculated as the ratio of IC50 determined under the dark conditions / IC50 determined for 420 […]
f TMI – tissue-mass index was calculated as the ratio of IC50 values determined for 3D and 2D models under irradiation conditions.

[1] = test system: hiPSC-derived cerebral organoids; assay: Cerebral organoid volume growth after treatment (healthy tissue); type: cell-based, human; details: fusion system, untreated control 25%
Protocol: To assess the treatment’s impact on healthy tissue, cerebral organoid volumes were measured using phase-contrast or bright-field confocal microscopy with manually defined regions of interest.

[2] = dark, 70 h drug-free, read-out: IC50 3D Dark
[3] = 30 min blue light 420 nm 58 W m-2, 70 h drug-free, read-out: IC50 3D Irradiated

Cc1ccc(-c2cc3[n+]4c(c2)-c2cccc[n+]2[Ir-3]42([Cl])([c]4cc5ccccc5cc4-c4n(Cc5ccc(C(F)(F)F)cc5)c5ccccc5[n+]42)[n+]2ccccc2-3)cc1.F[P-](F)(F)(F)(F)F [Ir3]
PI (phototoxicity index) 3D (U87MG spheroids): 6.1
IC50 (U87MG spheroids; [2]): 36.6 ± 4.5 µM
IC50 (U87MG spheroids; [3]): 6 ± 1 µM
TMI (3D/2D) (U87MG spheroids): 9.0

CCCCn1c2[n+](c3cc(C(=O)OC)ccc31)[Ir-3]13([Cl])([c]4ccccc4-2)[n+]2ccccc2-c2cc(-c4ccc(C)cc4)cc([n+]21)-c1cccc[n+]13.F[P-](F)(F)(F)(F)F [Ir4]
increase in cerebral organoid volume over 120 h [1]: 24%
PI (phototoxicity index) 3D (U87MG spheroids): 13.1
IC50 (U87MG spheroids; [2]): 27.6 ± 4 µM
IC50 (U87MG spheroids; [3]): 2.1 ± 0.2 µM
TMI (3D/2D) (U87MG spheroids): 4

Cc1ccc(-c2cc3[n+]4c(c2)-c2cccc[n+]2[Ir-3]42([Cl])([c]4c(ccc5c4OCO5)-c4n(Cc5ccc(C(F)(F)F)cc5)c5ccccc5[n+]42)[n+]2ccccc2-3)cc1.F[P-](F)(F)(F)(F)F [Ir5]
PI (phototoxicity index) 3D (U87MG spheroids): 4.5
IC50 (U87MG spheroids; [2]): 32.3 ± 3.3 µM
IC50 (U87MG spheroids; [3]): 7.1 ± 0.8 µM
TMI (3D/2D) (U87MG spheroids): 16.9

Cn1nnc2c(C(N)=O)ncn2c1=O [Temozolomide, reference compound]
increase in cerebral organoid volume over 120 h [1]: 21%
IC50 (U87MG spheroids; Homo sapiens, U-87 MG, light or radiation study, 30 min blue light 420 nm 58 W m-2, 70 h drug-free, read-out: IC50 3D Irradiated): 95.3 ± 6.4 µM
IC50 (U87MG spheroids; Homo sapiens, U-87 MG, dark, 70 h drug-free, read-out: IC50 3D Dark): ≥ 100 µM
